This is an account of results in ChEMBL document CHEMBL3886634, “Substituted 3-haloallylamine inhibitors of ASSAO and uses thereof” (2016).

Molecules are shown by their SMILES.

Test [1] concerns the target T1, Amine oxidase [flavin-containing] B (Homo sapiens, UniProt P27338).
T1 sequence (P27338 whole entry): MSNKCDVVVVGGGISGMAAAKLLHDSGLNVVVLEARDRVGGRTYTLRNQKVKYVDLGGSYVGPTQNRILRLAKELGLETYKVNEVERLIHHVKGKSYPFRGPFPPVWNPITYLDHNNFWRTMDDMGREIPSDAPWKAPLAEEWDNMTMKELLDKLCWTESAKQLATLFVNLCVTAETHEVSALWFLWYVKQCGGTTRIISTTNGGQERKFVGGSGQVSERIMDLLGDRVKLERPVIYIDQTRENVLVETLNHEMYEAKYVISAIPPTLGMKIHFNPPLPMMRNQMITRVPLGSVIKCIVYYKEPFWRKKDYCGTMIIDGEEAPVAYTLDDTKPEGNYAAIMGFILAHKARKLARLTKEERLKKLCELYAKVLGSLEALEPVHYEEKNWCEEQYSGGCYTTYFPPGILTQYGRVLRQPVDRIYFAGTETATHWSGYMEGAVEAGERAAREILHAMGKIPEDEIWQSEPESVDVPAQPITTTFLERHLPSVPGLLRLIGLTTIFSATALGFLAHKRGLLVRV

Test [2] addresses T2, Diamine oxidase [copper-containing] (Homo sapiens, UniProt P19801).
T2 sequence (P19801 whole entry): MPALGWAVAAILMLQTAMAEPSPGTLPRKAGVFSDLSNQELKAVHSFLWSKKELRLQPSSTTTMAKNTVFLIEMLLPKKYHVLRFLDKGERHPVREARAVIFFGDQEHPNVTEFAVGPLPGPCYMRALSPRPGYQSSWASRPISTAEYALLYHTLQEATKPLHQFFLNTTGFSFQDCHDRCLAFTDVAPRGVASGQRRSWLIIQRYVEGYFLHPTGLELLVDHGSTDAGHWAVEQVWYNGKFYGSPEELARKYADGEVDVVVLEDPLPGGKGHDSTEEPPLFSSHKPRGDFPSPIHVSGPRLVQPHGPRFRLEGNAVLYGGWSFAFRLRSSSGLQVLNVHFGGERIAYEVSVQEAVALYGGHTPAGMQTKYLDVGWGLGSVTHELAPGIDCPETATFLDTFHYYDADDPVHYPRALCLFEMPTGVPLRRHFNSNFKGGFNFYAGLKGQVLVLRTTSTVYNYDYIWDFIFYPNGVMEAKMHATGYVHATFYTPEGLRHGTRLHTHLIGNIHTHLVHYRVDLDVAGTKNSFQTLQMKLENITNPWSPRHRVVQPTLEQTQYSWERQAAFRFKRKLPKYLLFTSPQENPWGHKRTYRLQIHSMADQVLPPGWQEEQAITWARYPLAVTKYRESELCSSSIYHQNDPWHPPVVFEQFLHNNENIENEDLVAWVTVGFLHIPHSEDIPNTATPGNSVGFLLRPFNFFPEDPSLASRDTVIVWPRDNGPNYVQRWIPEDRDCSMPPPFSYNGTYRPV
In words: DAO Inhibition Assay: Recombinant human DAO (2.4 μg/mL) was used as source of DAO enzyme activities.

For the molecule `NC/C(=C/F)CCc1ccc(F)cc1` [MOFEGILINE], the IC50 – broadly, the concentration at which inhibition is half-maximal – in test [1] was 5 nM; in test [2], over 10000 nM.
